Laboratory results published in patent publication US20060276464A1, “Diarylsulfone sulfonamides and use thereof” (Wyeth, priority 2005, published 2006).
Several values for one entry are separate records, joined by “and”; a condition that tells them apart may be missing. Identical values can stand only once. Like-named read-outs stand apart in the source and are kept apart here.

Legend:
[1] = biological target: T1, SFRP-1 (Homo sapiens, UniProt Q8N474); assay: Fluorescence polarization binding assay (competitive displacement of a probe compound from SFRP-1); conditions: fluorescence anisotropy, 45 nM SFRP-1, 20 nM probe;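 also: test compound competes with a fluorescent probe held by SFRP-1, seen as a drop in probe anisotropy after incubation in darkness, with anisotropy as function of rising compound dose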
T1 sequence (Q8N474 32-314): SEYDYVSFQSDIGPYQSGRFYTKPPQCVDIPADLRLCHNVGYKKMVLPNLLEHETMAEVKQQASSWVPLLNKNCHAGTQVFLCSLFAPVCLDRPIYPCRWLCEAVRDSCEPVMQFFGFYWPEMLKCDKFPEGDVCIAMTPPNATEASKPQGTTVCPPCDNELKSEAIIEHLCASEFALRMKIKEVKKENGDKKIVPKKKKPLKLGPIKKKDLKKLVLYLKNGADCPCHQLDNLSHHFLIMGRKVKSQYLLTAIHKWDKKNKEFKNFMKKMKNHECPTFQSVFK

[2] = biological target: T1, SFRP-1; assay: Cell-based assay for in vitro measurement of SFRP-1/SARP2 antagonist activity (U2OS cells co-transfected with 16x TCF-tk-Luciferase reporter, Wnt and hSFRP-1); conditions: for fold induction at 10 µM / fold induction at 15 µM: U2OS; for fold induction at 10 µM: read-out: Fold Induction with SFRP-1, U2OS cells, single dose 10 μM, luciferase reporter, fold induction over SFRP-1 control;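 as to all read-outs here: U2OS cells co-transfected with a TCF-tk luciferase reporter, a Wnt vector, hSFRP-1 or empty vector and CMV-βgal, luciferase luminescence read in cell lysates alongside βgal activity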
[3] = read-out: Fold Induction with SFRP-1, Conc 15 μM, with SFRP-1, fold induction over SFRP-1 control, single dose
[4] = read-out: Fold Induction without SFRP-1, Conc 15 μM, without SFRP-1, single dose

| SMILES | IC50 [1] | fold induction at 10 µM [2] | EC50 [2] [µM] | Fold Induction with SFRP-1 ([2]; Conc 15 μM, with SFRP-1, fold induction over SFRP-1 control, single dose) [fold] | fold induction at 15 µM [2, 3] | fold induction at 15 µM [2, 4] |
| --- | --- | --- | --- | --- | --- | --- |
| CC(C)(C)c1ccc(NC(=O)N2CCC(NS(=O)(=O)c3cc(S(=O)(=O)c4ccccc4)ccc3C(F)(F)F)CC2)cc1 [Example 759, N-(4-tert-butylphenyl)-4-({[5-(phenylsulfonyl)-2-(trifluoromethyl)phenyl]sulfonyl}amino)piperidine-1-carboxamide] | 1.6 µM | 3.5 |  |  |  |  |
| COc1ccc(NC(=S)N2CCC(NS(=O)(=O)c3cc(S(=O)(=O)c4ccc(F)cc4)ccc3C(C)C)CC2)cc1 [Example 695, 4-[({5-[(4-fluorophenyl)sulfonyl]-2-isopropylphenyl}sulfonyl)amino]-N-(4-methoxyphenyl)piperidine-1-carbothioamide] | 0.19 µM | 2.1 | 7.1 |  |  |  |
| O=S(=O)(NC1CCN(c2ccc(C(F)(F)F)cc2)CC1)c1cc(S(=O)(=O)c2ccccc2)ccc1C(F)(F)F [Example 763, 5-(phenylsulfonyl)-2-(trifluoromethyl)-N-{1-[4-(trifluoromethyl)phenyl]piperidin-4-yl}benzenesulfonamide] | 1.7 µM | 2.7 |  |  |  |  |
| O=S(=O)(NC1CCOCC1)c1cc(S(=O)(=O)c2cccc(O)c2)ccc1C(F)(F)F [Example 744, 5-[(3-hydroxyphenyl)sulfonyl]-N-(tetrahydro-2H-pyran-4-yl)-2-(trifluoromethyl)benzenesulfonamide] | 0.2 µM | 3.1 | 0.852 |  |  |  |
| O=C(O)c1cccc(NC(=S)N2CCC(NS(=O)(=O)c3cc(S(=O)(=O)c4ccccc4)ccc3C(F)(F)F)CC2)c1 [Example 855, 3-({[4-({[5-(phenylsulfonyl)-2-(trifluoromethyl)phenyl]sulfonyl}amino)piperidin-1-yl]carbonothioyl}amino)benzoic acid] | 0.04 µM | 3.4 | 0.137 |  |  |  |
| O=C(O)COc1ccc2c(c1)CC(NS(=O)(=O)c1cc(S(=O)(=O)c3ccccc3)ccc1C(F)(F)F)C2 (centres unmarked) [Example 1031, {[2-({[5-(phenylsulfonyl)-2-(trifluoromethyl)phenyl]sulfonyl}amino)-2,3-dihydro-1H-inden-5-yl]oxy}acetic acid] | 0.02 µM |  | 0.085 |  |  |  |
| C[C@H](C(N)=O)N1CCC(NS(=O)(=O)c2cc(S(=O)(=O)c3ccccc3)ccc2C(F)(F)F)CC1 [Example 1038, (2R)-2-[4-({[5-(phenylsulfonyl)-2-(trifluoromethyl)phenyl]sulfonyl}amino)piperidin-1-yl]propanamide] | 0.1 µM |  | 0.331 |  |  |  |
| Cc1ccc(S(=O)(=O)c2ccccc2)cc1S(=O)(=O)NCCCn1ccnc1 [Example 219, N-[3-(1H-imidazol-1-yl)propyl]-2-methyl-5-(phenylsulfonyl)benzenesulfonamide] | 3 µM and 1.1 µM and 2.1 µM |  |  | 3.6 | 3 | 1.1 |
| COC(=O)c1ccc2c(c1)CC(NS(=O)(=O)c1cc(S(=O)(=O)c3ccccc3)ccc1C(F)(F)F)C2 (centres unmarked) [Example 1037, methyl 2-({[5-(phenylsulfonyl)-2-(trifluoromethyl)phenyl]sulfonyl}amino)indane-5-carboxylate] | 0.08 µM |  | 3.81 |  |  |  |
| Cc1ccccc1NC(=S)N1CCC(NS(=O)(=O)c2cc(S(=O)(=O)c3ccc(F)cc3)ccc2C(C)C)CC1 [Example 692, 4-[({5-[(4-fluorophenyl)sulfonyl]-2-isopropylphenyl}sulfonyl)amino]-N-(2-methylphenyl)piperidine-1-carbothioamide] | 1.7 µM | 3 | 8.5 |  |  |  |
| CC(C)c1ccc(S(=O)(=O)c2cccc3c(N(C)C)cccc23)cc1S(=O)(=O)NCCc1ccccn1 [Example 474, 5-{[5-(dimethylamino)-1-naphthyl]sulfonyl}-2-isopropyl-N-(2-pyridin-2-ylethyl)benzenesulfonamide] | 0.8 µM |  |  |  | 1.4 | 1 |
| CC(C)c1ccc(S(=O)(=O)c2ccccc2)cc1S(=O)(=O)NC1CCN(C(=O)OC(C)(C)C)CC1 [Example 912, tert-butyl 4-({[2-isopropyl-5-(phenylsulfonyl)phenyl]sulfonyl}amino)piperidine-1-carboxylate] | 2.1 µM | 2.4 | 1.01 |  |  |  |
| Cc1ccc(S(=O)(=O)c2ccccc2)cc1S(=O)(=O)NC1CCN(S(=O)(=O)c2cccs2)CC1 [Example 482, 2-methyl-5-(phenylsulfonyl)-N-[1-(2-thienylsulfonyl)piperidin-4-yl]benzenesulfonamide] | 0.8 µM |  |  |  | 3.2 | 1.1 |
| CN(CCNS(=O)(=O)c1cc(S(=O)(=O)c2ccccc2)ccc1C(F)(F)F)C(=O)c1cccnc1Cl [Example 851, 2-Chloro-N-methyl-N-[2-({[5-(phenylsulfonyl)-2-(trifluoromethyl)phenyl]sulfonyl}amino)ethyl]nicotinamide] | 0.4 µM | 3.6 | 1.51 |  |  |  |
| O=S(=O)(NC1CCNCC1)c1cc(S(=O)(=O)c2cccc(Br)c2)ccc1C(F)(F)F [Example 1034, 5-[(3-bromophenyl)sulfonyl]-N-piperidin-4-yl-2-(trifluoromethyl)benzenesulfonamide] | 0.5 µM |  | 1.67 |  |  |  |
| Cc1ccc(C(=O)N2CCC(NS(=O)(=O)c3cc(S(=O)(=O)c4ccccc4)ccc3C)CC2)cc1 [Example 468, 2-methyl-N-[1-(4-methylbenzoyl)piperidin-4-yl]-5-(phenylsulfonyl)benzenesulfonamide] | 1 µM |  |  |  | 2 | 1.2 |
| Cc1ccc(S(=O)(=O)c2cccc(Cl)c2Cl)cc1S(=O)(=O)NCCCn1ccnc1 [Example 360, 5-[(2,3-dichlorophenyl)sulfonyl]-N-[3-(1H-imidazol-1-yl)propyl]-2-methylbenzenesulfonamide] | 2 µM |  |  |  | 1.9 | 0.9 |
| O=S(=O)(NCCN1CCOCC1)c1cc(S(=O)(=O)c2ccccc2)ccc1C(F)(F)F [Example 766, N-(2-morpholin-4-ylethyl)-5-(phenylsulfonyl)-2-(trifluoromethyl)benzenesulfonamide] | 0.4 µM | 2.7 | 1.22 |  |  |  |

Further compounds by falling IC50 [1], results first:

| IC50 [1] | fold induction at 10 µM [2] | EC50 [2] [µM] | Fold Induction with SFRP-1 ([2]; Conc 15 μM, with SFRP-1, fold induction over SFRP-1 control, single dose) [fold] | fold induction at 15 µM [2, 3] | fold induction at 15 µM [2, 4] | SMILES |
| --- | --- | --- | --- | --- | --- | --- |
| 3 µM | 2.8 | 1.86 |  |  |  | COC(=O)C1CCCC(NS(=O)(=O)c2cc(S(=O)(=O)c3ccccc3)ccc2C(C)C)C1 (centres unmarked) [Example 932, methyl 3-({[2-isopropyl-5-(phenylsulfonyl)phenyl]sulfonyl}amino)cyclohexanecarboxylate] |
| 2.2 µM |  | 2.94 |  |  |  | O=C(O)c1ccc(-c2ccc(CNS(=O)(=O)c3cc(S(=O)(=O)c4ccccc4)ccc3C(F)(F)F)cc2)cc1 [Example 979, 4′-[({[5-(phenylsulfonyl)-2-(trifluoromethyl)phenyl]sulfonyl}amino)methyl]biphenyl-4-carboxylic acid] |
| 1.4 µM |  |  |  | 2.6 | 1 | CC[C@H](C)[C@@H](CO)Nc1ccc(S(=O)(=O)c2ccc(C)c(S(=O)(=O)NCCCn3ccnc3)c2)cc1 [Example 354, 5-[(4-{[(1S,2S)-1-(hydroxymethyl)-2-methylbutyl]amino}phenyl)sulfonyl]-N-[3-(1H-imidazol-1-yl)propyl]-2-methylbenzenesulfonamide] |
| 1.1 µM | 2.2 | 14.7 |  |  |  | COC(=O)c1ccc(NC(=S)N2CCC(NS(=O)(=O)c3cc(S(=O)(=O)c4ccc(F)cc4)ccc3C(C)C)CC2)cc1 [Example 696, methyl 4-[({4-[({5-[(4-fluorophenyl)sulfonyl]-2-isopropylphenyl}sulfonyl)amino]piperidin-1-yl}carbonothioyl)amino]benzoate] |
| 0.8 µM |  |  |  | 3.6 | 1 | COc1cccc(S(=O)(=O)c2ccc(C(C)C)c(S(=O)(=O)NCCc3ccccn3)c2)c1 [Example 456, 2-isopropyl-5-[(3-methoxyphenyl)sulfonyl]-N-(2-pyridin-2-ylethyl)benzenesulfonamide] |
| 0.3 µM | 3.5 | 1.16 |  |  |  | O=C(O)c1cccc(S(=O)(=O)Nc2ccc(CNS(=O)(=O)c3cc(S(=O)(=O)c4ccccc4)ccc3C(F)(F)F)cc2)c1 [Example 963] |
| 0.3 µM |  | 3.01 |  |  |  | O=C(O)c1cccc(-c2cccc(CNS(=O)(=O)c3cc(S(=O)(=O)c4ccccc4)ccc3C(F)(F)F)c2)c1 [Example 996, 3′-[({[5-(phenylsulfonyl)-2-(trifluoromethyl)phenyl]sulfonyl}amino)methyl]biphenyl-3-carboxylic acid] |
| 0.2 µM | 3.5 | 0.787 |  |  |  | O=C(c1ccc(F)c(F)c1)N1CCC(NS(=O)(=O)c2cc(S(=O)(=O)c3ccccc3)ccc2C(F)(F)F)CC1 [Example 705, N-[1-(3,4-difluorobenzoyl)piperidin-4-yl]-5-(phenylsulfonyl)-2-(trifluoromethyl)benzenesulfonamide] |
